Assay [1] concerns the target T1, human mAChR M1 (Homo sapiens, UniProt P11229).
T1 construct: host or cells: CHO-K1 cells (ATCC), stably transfected using Lipofectamine2000
T1 sequence (P11229 1-460): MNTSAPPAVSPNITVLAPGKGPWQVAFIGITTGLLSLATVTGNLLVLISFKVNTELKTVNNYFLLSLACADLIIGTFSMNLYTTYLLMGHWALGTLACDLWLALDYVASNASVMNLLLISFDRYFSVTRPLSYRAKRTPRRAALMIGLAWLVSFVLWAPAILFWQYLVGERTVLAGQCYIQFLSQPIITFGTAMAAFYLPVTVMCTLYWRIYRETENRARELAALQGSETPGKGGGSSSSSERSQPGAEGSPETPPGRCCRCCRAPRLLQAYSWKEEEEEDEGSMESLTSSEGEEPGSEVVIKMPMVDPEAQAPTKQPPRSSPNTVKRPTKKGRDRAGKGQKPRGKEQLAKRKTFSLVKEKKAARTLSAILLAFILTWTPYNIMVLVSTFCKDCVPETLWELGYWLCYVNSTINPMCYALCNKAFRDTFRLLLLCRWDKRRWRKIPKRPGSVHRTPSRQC
Put plainly: mAChR M1 cell-based functional assay (calcium mobilization), PAM activity: increase in the EC20 acetylcholine response. The note with it: CHO-K1 cells expressing hM1; potentiation of EC20 acetylcholine response. Summed up: (§1)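 CHO-K1 cells stably expressing hM1, loaded with Fluo-4 AM; calcium flux read on FDSS 6000. Compound (11-point, 1:3 CRC) added at 4 s, EC20 acetylcholine at 144 s, EC80 at 230 s; agonism from response to compound alone, PAM from increase in EC20 response; Emax relative to acetylcholine maximum, four-parameter fit.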

Assay [2] addresses T1, human mAChR M1. Put plainly: mAChR M1 cell-based functional assay (calcium mobilization), agonist activity upon compound addition. As to conditions: CHO-K1 cells expressing hM1; for EC50: compound alone, before acetylcholine addition; for Emax: relative to the maximum for acetylcholine. Summed up:
as §1
(Calcium assays in cells follow changes in intracellular calcium, usually with a dye or a luminescent sensor.)

Bounds are passed on as bounds.

Regarding `O=C(N[C@H]1CCCCC[C@@H]1O)c1cn(Cc2ccc(-n3cccn3)cc2)c(=O)n2ccnc12` [Compound B16, 6-(4-(1H-pyrazol-1-yl)benzyl)-N-((1S,2S)-2-hydroxycycloheptyl)-5-oxo-5,6-dihydroimidazo[1,2-c]pyrimidine-8-carboxamide], on human mAChR M1 [1], the EC50 is 0.52 µM and the maximum response (Emax) is 81%. Moreover, at human mAChR M1 [2], the EC50 was more than 10 µM and the maximal response (Emax) was less than 5%.

Consider `Cn1cc2c(-c3cc(F)c(Cn4cc(C(=O)NCC(O)C(F)(F)F)c5nccnc5c4=O)c(F)c3)cccc2n1` (centres unmarked) [Compound A74, 6-(2,6-difluoro-4-(2-methyl-2H-indazol-4-yl)benzyl)-5-oxo-N-(3,3,3-trifluoro-2-hydroxypropyl)-5,6-dihydropyrido[3,4-b]pyrazine-8-carboxamide], for which, at human mAChR M1 [1], the EC50 was determined as 3.81 µM and the Emax is 53%. On human mAChR M1 [2], the EC50 is more than 10 µM and the Emax is less than 5%.

Turning to `Cn1cc(-c2ccc(Cn3cc(C(=O)N[C@H]4CCCC[C@@H]4O)c4nccn4c3=O)c(F)c2)cn1` [Compound B6, 6-(2-fluoro-4-(1-methyl-1H-pyrazol-4-yl)benzyl)-N-((1S,2S)-2-hydroxycyclohexyl)-5-oxo-5,6-dihydroimidazo[1,2-c]pyrimidine-8-carboxamide], at human mAChR M1 [1], the EC50 was 0.037 µM and the maximum response (Emax) was found to be 74%. For the same compound, at human mAChR M1 [2], the EC50 came out at 1.54 µM and the Emax was found to be 63%.

In the case of `Cc1cn2c(=O)n(Cc3ccc(-c4cnn(C)c4)cc3F)cc(C(=O)N[C@H]3CCOC[C@@H]3O)c2n1` [Compound B23, 6-(2-Fluoro-4-(1-methyl-1H-pyrazol-4-yl)benzyl)-N-((3R,4S)-3-hydroxytetrahydro-2H-pyran-4-yl)-2-methyl-5-oxo-5,6-dihydroimidazo[1,2-c]pyrimidine-8-carboxamide], on human mAChR M1 [1], the EC50 worked out at 7.85 µM and the Emax amounted to 39%. At human mAChR M1 [2], the half-maximal effective concentration (EC50) was more than 10 µM and the Emax was less than 5%.

For the compound `Cn1ccc(-c2ccc(Cn3cc(C(=O)N[C@H]4CCCC[C@@H]4O)c4ncccc4c3=O)c(F)c2)n1` [Compound A2, 6-(2-fluoro-4-(1-methyl-1H-pyrazol-3-yl)benzyl)-N-((1S,2S)-2-hydroxycyclohexyl)-5-oxo-5,6-dihydro-1,6-naphthyridine-8-carboxamide], on human mAChR M1 [1], the concentration for a half-maximal effect (EC50) amounted to 0.73 µM and the Emax stood at 91%. Moreover, on human mAChR M1 [2], the EC50 was more than 10 µM and the Emax was less than 5%.

As to `Cc1cn2c(=O)n(Cc3c(F)cc(-c4cccc5nn(C)cc45)cc3F)cc(C(=O)N[C@H]3CCOC[C@@H]3O)c2n1` [Compound B29, 6-(2,6-difluoro-4-(2-methyl-2H-indazol-4-yl)benzyl)-N-((3R,4S)-3-hydroxytetrahydro-2H-pyran-4-yl)-2-methyl-5-oxo-5,6-dihydroimidazo[1,2-c]pyrimidine-8-carboxamide], at human mAChR M1 [1], the EC50 was 4.31 µM and the Emax stood at 40%. On human mAChR M1 [2], the half-maximal effective concentration (EC50) was more than 10 µM and the Emax was less than 5%.

`Cn1cc(-c2ccc(Cn3cc(C(=O)N[C@H]4CCOC[C@@H]4O)c4ncccc4c3=O)cc2)cn1` [Compound A58, N-((3R,4S)-3-hydroxytetrahydro-2H-pyran-4-yl)-6-(4-(1-methyl-1H-pyrazol-4-yl)benzyl)-5-oxo-5,6-dihydro-1,6-naphthyridine-8-carboxamide]: the EC50 on human mAChR M1 [1] amounted to 0.37 µM; at human mAChR M1 [2] it was 5.27 µM. Besides, the Emax worked out at 68% on human mAChR M1 [1] and 40% on human mAChR M1 [2].

On to `Cn1cc2c(-c3cc(F)c(Cn4cc(C(=O)NCC(C)(C)O)c5nccnc5c4=O)c(F)c3)cccc2n1` [Compound A73, 6-(2,6-difluoro-4-(2-methyl-2H-indazol-4-yl)benzyl)-N-(2-hydroxy-2-methylpropyl)-5-oxo-5,6-dihydropyrido[3,4-b]pyrazine-8-carboxamide], for which, on human mAChR M1 [1], the 50% effective concentration (EC50) stood at 4.04 µM and the maximal response (Emax) stood at 67%. Also, on human mAChR M1 [2], the concentration for a half-maximal effect (EC50) is more than 10 µM and the Emax was less than 5%.

For the compound `CC[C@H](C)[C@@H](CO)NC(=O)c1cn(Cc2ccc(-c3cnn(C)c3)cc2F)c(=O)c2nccnc12` [Compound A83, 6-(2-fluoro-4-(1-methyl-1H-pyrazol-4-yl)benzyl)-N-((2S,3S)-1-hydroxy-3-methylpentan-2-yl)-5-oxo-5,6-dihydropyrido[3,4-b]pyrazine-8-carboxamide], at human mAChR M1 [1], the 50% effective concentration (EC50) was not below 10 µM and the maximum response (Emax) is 26%. On human mAChR M1 [2], the EC50 is more than 10 µM and the maximal effect (Emax) was less than 5%.

Regarding `Cn1cc2c(-c3cc(F)c(Cn4cc(C(=O)NC5(CO)CCOC5)c5nccnc5c4=O)c(F)c3)cccc2n1` (centres unmarked) [Compound A72, 6-(2,6-difluoro-4-(2-methyl-2H-indazol-4-yl)benzyl)-N-(3-(hydroxymethyl)tetrahydrofuran-3-yl)-5-oxo-5,6-dihydropyrido[3,4-b]pyrazine-8-carboxamide], on human mAChR M1 [1], the EC50 is not below 10 µM and the Emax was determined as 32%. On human mAChR M1 [2], the EC50 is more than 10 µM and the maximal effect (Emax) was less than 5%.

Consider `Cn1ccc(-c2ccc(Cn3cc(C(=O)NC4CC5(COC5)C4)c4ncccc4c3=O)c(F)c2)n1` [Compound A5, 6-(2-Fluoro-4-(1-methyl-1H-pyrazol-3-yl)benzyl)-5-oxo-N-(2-oxaspiro[3.3]heptan-6-yl)-5,6-dihydro-1,6-naphthyridine-8-carboxamide], for which, on human mAChR M1 [1], the concentration for a half-maximal effect (EC50) turned out to be 2.74 µM and the Emax was found to be 44%. Moreover, on human mAChR M1 [2], the EC50 was more than 10 µM and the Emax is less than 5%.

Consider `Cn1ccc(-c2ccc(Cn3cc(C(=O)N[C@H]4CCC[C@@H]4O)c4nccn4c3=O)c(F)c2)n1` [Compound B3, 6-(2-fluoro-4-(1-methyl-1H-pyrazol-3-yl)benzyl)-N-((1S,2S)-2-hydroxycyclopentyl)-5-oxo-5,6-dihydroimidazo[1,2-c]pyrimidine-8-carboxamide], for which, on human mAChR M1 [1], the EC50 was 0.54 µM and the Emax turned out to be 67%. In addition, the maximal effect (Emax) at human mAChR M1 [2] was 33%.

Turning to `Cc1cn2c(=O)n(Cc3ccc(-n4cccn4)cc3)cc(C(=O)N[C@H]3CCCC[C@@H]3O)c2n1` [Compound B28, 6-(4-(1H-pyrazol-1-yl)benzyl)-N-((1S,2S)-2-hydroxycyclohexyl)-2-methyl-5-oxo-5,6-dihydroimidazo[1,2-c]pyrimidine-8-carboxamide], at human mAChR M1 [1], the EC50 was not below 10 µM and the Emax was 30%. In addition, at human mAChR M1 [2], the concentration giving a half-maximal response (EC50) is more than 10 µM and the Emax was less than 5%.

Take `Cn1cc2c(-c3cc(F)c(Cn4cc(C(=O)NC5CC6(COC6)C5)c5occc5c4=O)c(F)c3)cccc2n1` [Compound D24, 5-(2,6-difluoro-4-(2-methyl-2H-indazol-4-yl)benzyl)-4-oxo-N-(2-oxaspiro[3.3]heptan-6-yl)-4,5-dihydrofuro[3,2-c]pyridine-7-carboxamide]: on human mAChR M1 [1], the EC50 amounted to 2.48 µM and the Emax is 70%. Also, on human mAChR M1 [2], the EC50 was more than 10 µM and the maximum response (Emax) was less than 5%.

For `Cn1cc(-c2ccc(Cn3cc(C(=O)NCC(C)(C)O)c4nccnc4c3=O)c(F)c2)cn1` [Compound A80, 6-(2-fluoro-4-(1-methyl-1H-pyrazol-4-yl)benzyl)-N-(2-hydroxy-2-methylpropyl)-5-oxo-5,6-dihydropyrido[3,4-b]pyrazine-8-carboxamide], on human mAChR M1 [1], the EC50 was not below 10 µM and the Emax was found to be 30%. On human mAChR M1 [2], the EC50 is more than 10 µM and the Emax is less than 5%.

As for `Cn1cc(-c2ccc(Cn3cc(C(=O)N[C@H]4CCOC[C@@H]4O)c4nccn4c3=O)c(F)c2)cn1` [Compound B5, 6-(2-fluoro-4-(1-methyl-1H-pyrazol-4-yl)benzyl)-N-((3R,4S)-3-hydroxytetrahydro-2H-pyran-4-yl)-5-oxo-5,6-dihydroimidazo[1,2-c]pyrimidine-8-carboxamide], on human mAChR M1 [1], the EC50 was 0.046 µM and the maximal response (Emax) came to 68%. At human mAChR M1 [2], the EC50 came out at 0.15 µM and the Emax was determined as 62%.

With `Cn1cc2c(-c3cc(F)c(Cn4cc(C(=O)N[C@@H]5CC[C@H]5O)c5occc5c4=O)c(F)c3)cccc2n1` (stereo in doubt) [Compound D21, 5-(2,6-difluoro-4-(2-methyl-2H-indazol-4-yl)benzyl)-N-((1R,2R)-2-hydroxycyclobutyl)-4-oxo-4,5-dihydrofuro[3,2-c]pyridine-7-carboxamide], the concentration giving a half-maximal response (EC50) is 2.19 µM on human mAChR M1 [1] and more than 10 µM at human mAChR M1 [2]. Further, the Emax was 75% on human mAChR M1 [1] and less than 5% on human mAChR M1 [2].

Turning to `Cn1ccc(-c2ccc(Cn3cc(C(=O)N[C@H]4CCOC[C@@H]4O)c4nccn4c3=O)c(F)c2)n1` [Compound B1, 6-(2-fluoro-4-(1-methyl-1H-pyrazol-3-yl)benzyl)-N-((3R,4S)-3-hydroxytetrahydro-2H-pyran-4-yl)-5-oxo-5,6-dihydroimidazo[1,2-c]pyrimidine-8-carboxamide], the EC50 at human mAChR M1 [1] was found to be 0.13 µM; on human mAChR M1 [2], 3 µM. Moreover, the maximum response (Emax) worked out at 67% on human mAChR M1 [1] and 55% on human mAChR M1 [2].

The term EC50 denotes the concentration needed to bring the measured effect to its halfway point. A word on the Emax: it is the size of the effect at its maximum, as opposed to the concentration needed.

For the origin of these results see patent publication US20220041606A1, “POSITIVE ALLOSTERIC MODULATORS OF THE MUSCARINIC ACETYLCHOLINE RECEPTOR M1” (Vanderbilt University, priority 2020, published 2022).
